# Like-named read-outs stand apart in the source and are kept apart here.
# How the values were obtained:
# [1] = molecular target: Rat Prostatic 5α-reductase; assay: 5α-reductase in vitro inhibitory activity, rat prostatic; details: read-out: IC50 Rat Prostatic; microsomes derived from prostate tissue from the rat
# Experimental: (§1) Microsomes were prepared by homogenization of the tissue or cells, followed by differential centrifugation of the homogenate. […] Corresponding incubations were carried out with no test compound as a control study.
# (§2) The percentage of conversion of testosterone to DHT in the presence of test compounds compared to the corresponding conversion in the control study was estimated using high pressure liquid chromatography (HPLC) with radiochemical detection.
# [2] = molecular target: T1, human type 2 5α-reductase (Homo sapiens, UniProt P31213); assay: 5α-reductase in vitro inhibitory activity, human type 2
# T1 sequence (P31213 1-254): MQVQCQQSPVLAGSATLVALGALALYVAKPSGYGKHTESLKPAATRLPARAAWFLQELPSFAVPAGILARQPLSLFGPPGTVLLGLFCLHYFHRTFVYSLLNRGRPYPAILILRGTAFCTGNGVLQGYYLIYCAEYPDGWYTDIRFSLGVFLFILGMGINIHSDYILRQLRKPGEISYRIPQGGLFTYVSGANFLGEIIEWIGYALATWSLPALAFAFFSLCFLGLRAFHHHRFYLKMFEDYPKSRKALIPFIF
# Experimental: as §1, §2
# [3] = molecular target: T2, human type 1 5α-reductase (Homo sapiens, UniProt P18405); assay: 5α-reductase in vitro inhibitory activity, human type 1
# T2 sequence (P18405 1-259): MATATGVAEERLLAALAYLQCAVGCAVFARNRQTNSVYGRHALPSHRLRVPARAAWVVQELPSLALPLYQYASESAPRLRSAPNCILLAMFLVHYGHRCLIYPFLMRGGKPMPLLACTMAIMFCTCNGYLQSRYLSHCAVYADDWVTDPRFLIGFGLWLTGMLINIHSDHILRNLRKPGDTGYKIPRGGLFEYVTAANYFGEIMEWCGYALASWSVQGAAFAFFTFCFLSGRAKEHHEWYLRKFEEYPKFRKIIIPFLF
Compound,IC50 [1],IC50 [2],IC50 [3],"IC50 ([2]; read-out: IC50 Human Type 2, microsomes, preincubated 20 minutes at pH 6.0, 8nM testosterone, 1 mM NADPH)","IC50 ([3]; read-out: IC50 Human Type 1, microsomes of recombinant baculovirus infected SF9 cells, preincubated 10 minutes at pH 7.0, 100nM testosterone, 1 mM NADPH)"
17β-N-2-(3-N-Methylpyrrole)ethyl-carbamoyl-6-azaandrost-4-en-3-one [Compound 29],10 to 100 nM,–,–,10 to 100 nM,> 100 nM
C[C@]12CC[C@H]3[C@@H](CNC4=CC(=O)CC[C@@]43C)[C@@H]1CC[C@@H]2C(=O)NC(c1ccc(Cl)cc1)c1ccc(Cl)cc1 [Compound 47],< 10 nM,< 10 nM,10 to 100 nM,–,–
"Cc1ccc(CCNC(=O)C2CCC3C4CNC5=CC(=O)CCC5(C)C4CCC23C)cc1 (stereo not drawn) [Compound 12, 17β-N-(4-Methyl)phenethyl-carbamoyl-6-azaandrost-4-en-3-one]",< 10 nM,< 10 nM,10 to 100 nM,–,–
"CC12CCC(=O)C=C1NCC1C2CCC2(C)C(C(=O)NC(c3ccccc3)c3ccc(Cl)cc3)CCC12 (stereo not drawn) [Compound 11, 17β-N-(4-Chlorophenyl)(phenyl)methyl-carbamoyl-6-azaandrost-4-en-3-one]",< 10 nM,< 10 nM,10 to 100 nM,–,–
"C[C@]12CC[C@H]3[C@@H](CNC4=CC(=O)CC[C@@]43C)[C@@H]1CC[C@@H]2C(=O)NCc1ccco1 [Compound 19, 17β-N-(2-Furanyl)methyl-carbamoyl-6-azaandrost-4-en-3-one]",10 to 100 nM,10 to 100 nM,> 100 nM,–,–
"CC12CCC(=O)C=C1NCC1C2CCC2(C)C(C(=O)Nc3ccc4c(c3)OCO4)CCC12 (stereo not drawn) [Compound 7, 17β-N-(3,4-Methylenedioxy)phenyl-carbamoyl-6-azaandrost-4-en-3-one]",10 to 100 nM,< 10 nM,> 100 nM,–,–
"C[C@]12CC[C@H]3[C@@H](CNC4=CC(=O)CC[C@@]43C)[C@@H]1CC[C@@H]2C(=O)NCC1CCCCC1 [Compound 31, 17β-methylenecyclohexyl-carbamoyl-6-azaandrost-4-en-3-one]",< 10 nM,< 10 nM,10 to 100 nM,–,–
"CC1(C)C2CCC(CNC(=O)[C@H]3CC[C@H]4[C@@H]5CNC6=CC(=O)CC[C@]6(C)[C@H]5CC[C@]34C)C1C2 (stereo partly drawn) [Compound 39, 17β-N-Myrantyl-carbamoyl-6-azaandrost-4-en-3-one]",10 to 100 nM,< 10 nM,10 to 100 nM,–,–
"CC(NC(=O)[C@H]1CC[C@H]2[C@@H]3CNC4=CC(=O)CC[C@]4(C)[C@H]3CC[C@]12C)(c1ccc(Cl)cc1)c1ccc(Cl)cc1 [Compound 66, 17β-N-(1,1-Di-4-chlorophenyl)ethyl-carbamoyl-6-azaandrost-4-en-3-one]",–,< 10 nM,> 100 nM,–,–
"CC1CCC(C(C)C)C(OC(=O)OC[C@H]2CC[C@H]3[C@@H]4CNC5=CC(=O)CC[C@]5(C)[C@H]4CC[C@]23C)C1 (stereo partly drawn) [Compound 89, 17β-Hydroxymethyl-(menthylcarbonate)-6-azaandrost-4-en-3-one]",–,< 10 nM,10 to 100 nM,–,–
"C[C@]12CC[C@H]3[C@@H](CNC4=CC(=O)CC[C@@]43C)[C@@H]1CC[C@@H]2C(=O)NC1(c2ccc(Cl)cc2Cl)CC1 [Compound 101, 17β-N-1-(2,4-Dichlorophenyl)cyclopropyl-carbamoyl-6-azaandrost-4-en-3-one]",–,< 10 nM,< 10 nM,–,–
"CC(C)(C)c1ccc(C2(NC(=O)[C@H]3CC[C@H]4[C@@H]5CNC6=CC(=O)CC[C@]6(C)[C@H]5CC[C@]34C)CCSCC2)cc1 [Compound 143, 17β-N-4-(4-t-Butylphenyl)tetrahydrothiopyranyl-carbamoyl-6-azaandrost-4-en-3-one]",–,< 10 nM,< 10 nM,–,–
"C[C@]12CC[C@H]3[C@@H](CNC4=CC(=O)CC[C@@]43C)[C@@H]1CC[C@@H]2C(=O)Nc1c(Br)cc(Cl)cc1Br [Compound 69, 17β-N-(2,6-Dibromo-4-chloro)phenyl-carbamoyl-6-azaandrost-4-en-3-one]",–,< 10 nM,10 to 100 nM,–,–
"C[C@]12CC[C@H]3[C@@H](CNC4=CC(=O)CC[C@@]43C)[C@@H]1CC[C@@H]2C(=O)NC1(c2ccc(C(F)(F)F)cc2)CCCC1 [Compound 106, 17β-N-1-(4-Trifluoromethylphenyl)cyclopentyl-carbamoyl-6-azaandrost-4-en-3-one]",–,< 10 nM,< 10 nM,–,–
"C[C@]12CC[C@H]3[C@@H](CNC4=CC(=O)CC[C@@]43C)[C@@H]1CC[C@@H]2C(=O)NC1(c2ccc(F)cc2)CCCC1 [Compound 104, 17β-N-1-(4-Fluorophenyl)cyclopentyl-carbamoyl-6-azaandrost-4-en-3-one]",–,< 10 nM,10 to 100 nM,–,–
"C[C@]12CC[C@H]3[C@@H](CNC4=C(Cl)C(=O)CC[C@@]43C)[C@@H]1CC[C@@H]2C(=O)Nc1cc(C(F)(F)F)ccc1C(F)(F)F [Compound 126, 17β-N-(2,5-bis(Trifluoromethyl))phenyl-carbamoyl-6-azaandrost-4-chloro-4-en-3-one]",–,< 10 nM,< 10 nM,–,–
"CC1=C2NC[C@H]3[C@@H]4CC[C@H](C(=O)Nc5c(C(C)C)cccc5C(C)C)[C@@]4(C)CC[C@@H]3[C@@]2(C)C=CC1=O [Compound 94, 17β-N-(2,6-Di-i-propyl)phenyl-carbamoyl-6-azaandrost-4-methyl-1,4-dien-3-one]",–,< 10 nM,10 to 100 nM,–,–

# Further lines, with some results ahead:
IC50 [1],IC50 [2],IC50 [3],Compound,"IC50 ([2]; read-out: IC50 Human Type 2, microsomes, preincubated 20 minutes at pH 6.0, 8nM testosterone, 1 mM NADPH)","IC50 ([3]; read-out: IC50 Human Type 1, microsomes of recombinant baculovirus infected SF9 cells, preincubated 10 minutes at pH 7.0, 100nM testosterone, 1 mM NADPH)"
> 100 nM,< 10 nM,> 100 nM,"C[C@]12CC[C@H]3[C@@H](CNC4=CC(=O)CC[C@@]43C)[C@@H]1CC[C@@H]2C(=O)Nc1ccc2c(c1)CCC2 [Compound 4, 17β-N-5-Indanylcarbamoyl-6-azaandrost-4-en-3-one]",–,–
> 100 nM,10 to 100 nM,> 100 nM,"CC(C)(CO)NC(=O)[C@H]1CC[C@H]2[C@@H]3CNC4=CC(=O)CC[C@]4(C)[C@H]3CC[C@]12C [Compound 21, 17β-N-(1,1-Dimethyl)-2-hydroxyethyl-carbamoyl-6-azaandrost-4-en-3-one]",–,–
10 to 100 nM,10 to 100 nM,> 100 nM,"C[C@]12CC[C@H]3[C@@H](CNC4=CC(=O)CC[C@@]43C)[C@@H]1CC[C@@H]2C(=O)NCCc1ccccn1 [Compound 20, 17β-N-2-(2-Pyridyl)ethyl-carbamoyl-6-azaandrost-4-en-3-one]",–,–
–,10 to 100 nM,10 to 100 nM,"C[C@]12CC[C@H]3[C@@H](CNC4=CC(=O)CC[C@@]43C)[C@@H]1CC[C@@H]2C(=O)Nc1cc(C(F)(F)F)cc(C(F)(F)F)c1 [Compound 57, 17β-N-(3,5-Ditrifluoromethyl)phenyl-carbamoyl-6-azaandrost-4-en-3-one]",–,–
–,< 10 nM,< 10 nM,"CC(C)(C)c1ccc(C2(NC(=O)[C@H]3CC[C@H]4[C@@H]5CNC6=CC(=O)CC[C@]6(C)[C@H]5CC[C@]34C)CCCC2)cc1 [Compound 121, 17β-N-1-(4-t-Butylphenyl)cyclopentyl-carbamoyl-6-azaandrost-4-en-3-one]",–,–
–,< 10 nM,10 to 100 nM,"CC1(C)Cc2ccccc2C1NC(=O)[C@H]1CC[C@H]2[C@@H]3CNC4=CC(=O)CC[C@]4(C)[C@H]3CC[C@]12C (stereo partly drawn) [Compound 110, 17β-N-1-(2,2-Dimethyl)indanyl-carbamoyl-6-azaandrost-4-en-3-one]",–,–
–,< 10 nM,> 100 nM,"CC(C)(C)c1ccc(C(NC(=O)[C@H]2CC[C@H]3[C@@H]4CNC5=CC(=O)CC[C@]5(C)[C@H]4CC[C@]23C)c2ccccc2)cc1 (stereo partly drawn) [Compound 67, 17β-N-(1 -Phenyl-1-(4-t-butyl)phenyl)methyl-carbamoyl-6-azaandrost-4-en-3-one]",–,–

# Source: EP0674651B1, “SUBSTITUTED 6-AZAANDROSTENONES” (priority 1992, dated 1994)
